Biological target: T1, NLRP3 (Homo sapiens, UniProt Q96P20)
T1 construct: purified human His-GFP-NLRP3; NACHT domain mapped by DARTS
Test: microscale thermophoresis with purified GFP-NLRP3; DARTS and C409A mutation support
Format: binding

T1 sequence (Q96P20 whole entry, the tested form may be a part): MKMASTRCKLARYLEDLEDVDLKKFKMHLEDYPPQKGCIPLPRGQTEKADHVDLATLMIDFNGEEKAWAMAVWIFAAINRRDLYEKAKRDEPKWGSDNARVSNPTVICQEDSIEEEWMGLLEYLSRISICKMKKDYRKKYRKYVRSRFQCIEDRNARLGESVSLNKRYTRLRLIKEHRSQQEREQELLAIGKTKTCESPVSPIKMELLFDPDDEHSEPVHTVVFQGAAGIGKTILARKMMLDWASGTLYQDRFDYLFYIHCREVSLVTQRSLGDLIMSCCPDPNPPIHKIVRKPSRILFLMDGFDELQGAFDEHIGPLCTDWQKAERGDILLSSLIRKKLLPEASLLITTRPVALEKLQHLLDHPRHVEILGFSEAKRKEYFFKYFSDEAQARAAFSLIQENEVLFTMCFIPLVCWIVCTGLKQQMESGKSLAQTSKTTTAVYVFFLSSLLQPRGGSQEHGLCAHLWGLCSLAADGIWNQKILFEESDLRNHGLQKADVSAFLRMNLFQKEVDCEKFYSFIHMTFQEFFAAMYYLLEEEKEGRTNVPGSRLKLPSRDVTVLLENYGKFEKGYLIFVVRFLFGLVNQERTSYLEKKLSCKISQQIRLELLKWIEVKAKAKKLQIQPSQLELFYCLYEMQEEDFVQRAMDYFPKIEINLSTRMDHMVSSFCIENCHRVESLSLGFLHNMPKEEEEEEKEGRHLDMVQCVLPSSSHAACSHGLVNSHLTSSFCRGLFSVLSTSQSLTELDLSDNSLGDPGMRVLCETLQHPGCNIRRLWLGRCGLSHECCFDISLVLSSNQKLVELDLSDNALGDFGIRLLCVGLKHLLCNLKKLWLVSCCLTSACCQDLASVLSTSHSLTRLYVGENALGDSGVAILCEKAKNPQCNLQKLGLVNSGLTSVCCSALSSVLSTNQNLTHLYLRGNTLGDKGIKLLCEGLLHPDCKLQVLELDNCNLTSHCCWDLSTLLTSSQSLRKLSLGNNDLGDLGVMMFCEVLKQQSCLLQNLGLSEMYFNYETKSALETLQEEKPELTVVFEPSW

- Kd: 0.0482 µM
SMILES: O=C(CBr)NCc1ccc(C(F)(F)F)cc1 [149-01]

From paper PMC8892206, “An RRx-001 Analogue With Potent Anti-NLRP3 Inflammasome Activity but Without High-Energy Nitro Functional Groups” (Frontiers in Pharmacology, 2022)
